This is an account of results in US20150202212A1, “METHODS FOR IDENTIFYING AGENTS FOR TREATING SMOOTH MUSCLE DISORDERS AND COMPOSITIONS THEREOF” (University of Massachusetts Medical School, priority 2012, published 2015).

The test system of assay [1] is human airway smooth muscle. As to the kind of experiment: Measurement of cell shortening in human ASM cells. It is filed as cell-based. To be noted: chloroquine after Mch. How it is done:
Human lung tissue was obtained (with informed consent) from patients undergoing surgery (lobectomy) for lung cancer at the Department of Surgery and the Department of Pathology at the Univ. of Massachusetts Memorial Med Ctr (Worcester, Mass.). The tumors were identified as nonsmall cell carcinoma (adenocarcinoma, squamous cell carcinoma). Intrapulmonary airways were dissected out and cleaned free of the connective tissues. These airways were either cut into the rings ([…]) for force measurements the same as for mouse airway tissues, or digested with the same enzymes, dissociation medium and isolation procedure as for single mouse ASM cells.
Myocytes were placed into a recording chamber superfused with the bath solution for patch clamp experiments at room temperature. Cells loaded with Fluo-3 were imaged using a custom-built wide-field digital imaging system and their lengths were determined using custom software to manually trace down the center of the cell.

Assay [2] deals with mouse airway strips. Particulars: all at 1 mM; [Ca2+]i clamped; α-toxin permeabilized.
Assay [3] deals with Mouse ASM cells. As to the kind of experiment: Measurement of Ca2+ sparks / local Ca2+ events in mouse ASM cells.
For assay [4], the system named is mouse urethra. Briefly: Mouse urethral contraction induced by contractile agonists. To be noted: pretreatment; Chloro 1 mM; CDCA 100 μM. The source says:
[…] were pretreated with bitter tastants, and then stimulated with contractile agonists. Contractile agonists alone were used as the control.

Assay [5] has as its system isolated smooth muscle cells from mouse internal anal sphincter. As to the kind of experiment: [Ca2+]i in isolated smooth muscle cells from mouse internal anal sphincter. Format: cell-based. Particulars: CDCA 100 μM; chloroquine 1 mM; denatonium 1 mM. From the text:
Fluorescence images using fluo-3 as a calcium indicator were obtained using a custom-built wide-field digital imaging system. The camera was interfaced to a custom made inverted microscope, and the cells were imaged using either a 20× Nikon 1.3 NA for global [Ca^2+] measurement or a 60× Nikon 1.4 NA oil for Ca^2+ spark measurement. The 488 nm line of an Argon Ion laser provided fluorescence excitation, with a shutter to control exposure duration, and emission of the Ca^2+ indicator was monitored at wavelengths >500 nm. The images were acquired at the speed of either 1 Hz for global [Ca^2+] measurement or 50 Hz for Ca^2+ spark measurement. Subsequent image processing and analysis was performed off line using a custom-designed software package, running on a Linux/PC workstation. [Ca^2+]i was represented as ΔF/F0*100 with F calculated by integrating fluo-3 over entire cells for global [Ca^2+], or just the value at the brightest pixel (i.e., epicenter pixel) for Ca^2+ sparks.

Assay [6] has as its system L-type VDCCs. Particulars: chloroquine 1 mM; for inhibition of L-type Ca2+ channel currents: Ba2+ as charge carrier.

Like-named read-outs stand apart in the source and are kept apart here.

Regarding `CCN(CC)CCCC(C)Nc1ccnc2cc(Cl)ccc12` (centres unmarked) [chloroquine], the “cell length, % of the control length” value in assay [1] amounted to 94±5%. Further, the “relaxation of ASM at fixed [Ca2+]i” value in assay [2] is “failed to relax”. Besides, the “Ca2+ spark frequency” value in assay [3] (chloroquine 10 μM for 2 mins, 13 cells without global rise, control 2.13±0.24) stood at 1.62±0.21 Hz. For the same compound, the “Ca2+ spark amplitude (ΔF/F0 at the brightest location)” value in assay [3] (chloroquine 10 μM for 2 mins, n=13, control 20.6±1.69) is on record as 18.1±1.3. Besides, in assay [3] (chloroquine 10 μM, cells pretreated with 100 μM ryanodine, 14 cells), the “local Ca2+ events (Ca2+ puffs or sparks)” value is on record as “no detectable local Ca^2+ events”. Further, in assay [4], the “effect on 60 mM KCl-induced contraction” value was “blocked” and the “effect on alpha1-agonist phenylephrine-induced contraction” value was “inhibited”. The “effect on the increase in [Ca2+]i induced by 60 mM KCl” value in assay [5] is “fully reversed”. Moreover, in assay [6], the “time to full inhibition of L-type Ca2+ channel currents” value is at most 2 min and the “inhibition of L-type Ca2+ channel currents” value is “fully inhibited”. In addition, the “inhibition of L-type Ca2+ channel currents” value in assay [6] (listed as Chloro) is “blocked”.
